Results on 27 molecules are retold here after ChEMBL document CHEMBL2010681, “Synthesis and SAR study of 4-arylpiperidines and 4-aryl-1,2,3,6-tetrahydropyridines as 5-HT₂C agonists” (Bioorg Med Chem Lett, 2012).

A value given as a limit tells only on which side of the number the result lay.

As usually defined, the inhibition is the change of the read-out against control, counted positive when it falls. A lower inhibition goes with a weak effect. As usually defined, the EC50 is the concentration that produces a half-maximal response. A word on the Ki: it is the equilibrium dissociation constant of an inhibitor or competing ligand from its target.

For assay [1], the target named is T1, 5-hydroxytryptamine receptor 2C (Homo sapiens) (UniProt P28335).
T1 sequence (whole entry): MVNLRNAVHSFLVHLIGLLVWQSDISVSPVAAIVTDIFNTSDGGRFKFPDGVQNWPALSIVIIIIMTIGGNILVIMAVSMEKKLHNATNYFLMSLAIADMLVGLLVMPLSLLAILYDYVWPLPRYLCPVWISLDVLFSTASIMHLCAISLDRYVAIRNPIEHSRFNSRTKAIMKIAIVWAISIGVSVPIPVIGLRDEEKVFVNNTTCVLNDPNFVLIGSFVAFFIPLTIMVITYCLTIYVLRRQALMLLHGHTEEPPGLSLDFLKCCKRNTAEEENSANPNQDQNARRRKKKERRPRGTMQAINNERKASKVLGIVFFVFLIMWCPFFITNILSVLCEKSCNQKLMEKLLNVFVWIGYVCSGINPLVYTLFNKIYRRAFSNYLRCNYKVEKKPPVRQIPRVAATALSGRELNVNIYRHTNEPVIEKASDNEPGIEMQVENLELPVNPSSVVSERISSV
As to the kind of experiment: Displacement of [3H]-mesulergine from 5HT2C receptor expressed in CHO cell membranes at 10 uM after 90 mins by scintillation counting. (In general: Loss of bound radioactivity is the signal in a displacement assay; it reports binding, not function.)

In assay [2] the target is T2, 5-hydroxytryptamine receptor 2C (Homo sapiens, UniProt P28335).
T2 sequence (P28335 whole entry): T1 sequence (whole entry)
In words: Agonist activity at 5HT2C receptor expressed in CHO cells by fluorescence based calcium mobilization assay. It counts as functional, cell-based. For orientation: Calcium assays in cells follow changes in intracellular calcium, usually with a dye or a luminescent sensor.

Assay [3] concerns the target T1, 5-hydroxytryptamine receptor 2C (Homo sapiens). In words: Displacement of [3H]-mesulergine from 5HT2C receptor expressed in CHO cell membranes at 1 uM after 90 mins by scintillation counting.
The target in assay [4] is T2, 5-hydroxytryptamine receptor 2C. As to the kind of experiment: Displacement of [3H]-mesulergine from 5HT2C receptor expressed in CHO cell membranes after 90 mins by scintillation counting.
Assay [5] shares this target. In words: Displacement of [3H]-mesulergine from 5HT2C receptor expressed in CHO cell membranes using 11 concentration of ligand after 90 mins by scintillation counting using complete competition binding curves analysis.

As to `Cc1cccc(C2CCNCC2)c1`, the results for the inhibition in assay [1] and in assay [3] were 63% and 15%, respectively. Also, the EC50 in assay [2] (read-out: EC50) was 2000 nM. Also, the affinity in assay [4] corresponds to a Ki of 3130 nM.

As to `Cl.Oc1cccc(C2CCNCC2)c1`, the EC50 result in assay [2] (cho) is reported as “Not Active”. The molecule also yielded a Ki in assay [4] of over 10000 nM.

Consider `Cl.Fc1ccc(C2CCNCC2)cc1`, for which, in assay [2] (cho), the EC50 entry is recorded as “Not Active”. The Ki in assay [4] is over 10000 nM.

As to `Clc1cccc(C2CCNCC2)c1`, the inhibition turned out to be 83% in assay [1] and 37% in assay [3]. The EC50 in assay [2] (read-out: EC50) was 790 nM. Moreover, the Ki was found to be 931 nM in assay [4] and 1430 nM in assay [5].

As for `Clc1cccc(C2=CCNCC2)c1`, the inhibition in assay [1] came out at 95%; in assay [3], 65%. Besides, in assay [2] (read-out: EC50), the EC50 stood at 72.3 nM. Further, the values for the Ki in assay [4] and in assay [5] were 280 nM and 318 nM, respectively.

In the case of `Cl.FC(F)(F)c1ccc(C2CCNCC2)cc1`, the EC50 result in assay [2] (cho) is recorded as “Not Active”. The same molecule came in with a Ki in assay [4] of 8320 nM.

Regarding `FC(F)(F)c1cccc(C2CCNCC2)c1`, the inhibition in assay [1] amounted to 77%; in assay [3], 26%. Also, the EC50 in assay [2] (read-out: EC50) was 1260 nM. In assay [4], this molecule returned a Ki of 1550 nM.

With `COc1ccc(C2CCNCC2)cc1.Cl`, the inhibition turned out to be 9% in assay [1] and 3% in assay [3]. In addition, the EC50 result in assay [2] (cho) was “Not Active”. In assay [4], this molecule showed a Ki of over 10000 nM.

In the case of `C1=C(c2ccccc2)CCNC1`, the inhibition turned out to be 42% in assay [1] and 9% in assay [3]. In addition, in assay [2] (read-out: EC50), the EC50 is 2450 nM. This molecule also gave a Ki in assay [4] of 7180 nM.

For the molecule `O=C(O)C(F)(F)F.c1ccc2c(C3CCNCC3)cccc2c1`, the EC50 result in assay [2] (cho) is “Not Active”. Besides, the Ki was 60 nM in assay [4] and 72 nM in assay [5].

Take `Clc1ccccc1C1=CCNCC1.O=C(O)C(F)(F)F`: the EC50 result in assay [2] (cho) is reported as “Not Active”.

Turning to `Cc1ccccc1C1CCNCC1.Cl`, the inhibition is 65% in assay [1] and 10% in assay [3]. The EC50 result in assay [2] (cho) is reported as “Not Active”. In addition, in assay [4], the affinity corresponds to a Ki of 3170 nM.

For `Cl.Clc1ccc(C2CCNCC2)cc1`, the EC50 result in assay [2] (cho) is “Not Active”. Further, in assay [4], the Ki was over 10000 nM.

In the case of `Cl.c1ccc(C2CCNCC2)cc1`, the results for the inhibition in assay [1] and in assay [3] were 16% and 6%, respectively. Also, the EC50 result in assay [2] (cho) was “Not Active”. This molecule also displayed a Ki in assay [4] of over 10000 nM.

Take `Cl.Clc1ccccc1C1CCNCC1`: the EC50 result in assay [2] (cho) is “Not Active”.

With `COc1ccccc1C1CCNCC1.Cl`, the inhibition is 74% in assay [1] and 23% in assay [3]. Besides, in assay [2] (cho), the EC50 result is “Not Active”. The molecule also gave a Ki in assay [4] of 1800 nM.

Take `FC(F)(F)c1cccc(C2=CCNCC2)c1`: the inhibition in assay [1] amounted to 93%; in assay [3], 65%. The EC50 in assay [2] (read-out: EC50) was 158 nM. For the same molecule, the Ki in assay [4] worked out at 298 nM; in assay [5], 365 nM.

Regarding `Clc1ccc(C2=CCNCC2)cc1`, the results for the inhibition in assay [1] and in assay [3] were 62% and 17%, respectively. In addition, the EC50 in assay [2] (read-out: EC50) turned out to be 1760 nM. Also, the Ki in assay [4] stood at 3100 nM.

Regarding `O=C(O)C(F)(F)F.c1cc2c(c(C3CCNCC3)c1)CCCC2`, the EC50 result in assay [2] (cho) is recorded as “Not Active”. For the same molecule, the figures for the Ki in assay [4] and in assay [5] were 55 nM and 43 nM, respectively.

Consider `CN(C)c1ccc(C2CCNCC2)cc1.Cl`, for which the EC50 result in assay [2] (cho) is “Not Active”. Further, the Ki in assay [4] was over 10000 nM.

For the molecule `Cl.FC(F)(F)c1ccccc1C1CCNCC1`, the EC50 entry in assay [2] (cho) was “Not Active”. In assay [4], this molecule yielded a Ki of 826 nM.

Take `C1=C(c2c[nH]c3ccccc23)CCNC1`: the inhibition in assay [1] is 95%; in assay [3] it was 64%. The EC50 in assay [2] (read-out: EC50) worked out at 163 nM. For the same molecule, the Ki in assay [4] was 296 nM; in assay [5], 632 nM.

With `Cc1ccc(C2CCNCC2)cc1.Cl`, the inhibition in assay [1] came to 33%; in assay [3], 9%. Besides, the EC50 result in assay [2] (cho) was “Not Active”. For the same molecule, in assay [4], the Ki was over 10000 nM.

Turning to `Brc1ccc(C2=CCNCC2)cc1`, the inhibition was 65% in assay [1] and 22% in assay [3]. Besides, the EC50 in assay [2] (read-out: EC50) turned out to be 3520 nM. In assay [4], this molecule came in with a Ki of 2540 nM.

As to `Cc1cccc(C2CCNCC2)c1C.Cl`, the EC50 entry in assay [2] (cho) is recorded as “Not Active”. Further, the Ki in assay [4] worked out at 1160 nM.

With `COc1cccc(C2CCNCC2)c1.Cl`, the EC50 result in assay [2] (cho) is reported as “Not Active”. The molecule also showed a Ki in assay [4] of 6190 nM.

For the molecule `c1ccc2c(C3CCNCC3)c[nH]c2c1`, the inhibition in assay [1] amounted to 92%; in assay [3] it was 60%. In addition, the EC50 in assay [2] (read-out: EC50) was 128 nM. Also, the Ki in assay [4] is 366 nM; in assay [5], 612 nM.
